The results in this text go back to ChEMBL document CHEMBL1201862, “PubChem BioAssay data set” (2004).

Each structure is given as a SMILES string. The source made the active and inactive calls.

The target in assay [1] is T1, High affinity choline transporter 1 (Homo sapiens, UniProt Q9GZV3).
T1 sequence (Q9GZV3 whole entry): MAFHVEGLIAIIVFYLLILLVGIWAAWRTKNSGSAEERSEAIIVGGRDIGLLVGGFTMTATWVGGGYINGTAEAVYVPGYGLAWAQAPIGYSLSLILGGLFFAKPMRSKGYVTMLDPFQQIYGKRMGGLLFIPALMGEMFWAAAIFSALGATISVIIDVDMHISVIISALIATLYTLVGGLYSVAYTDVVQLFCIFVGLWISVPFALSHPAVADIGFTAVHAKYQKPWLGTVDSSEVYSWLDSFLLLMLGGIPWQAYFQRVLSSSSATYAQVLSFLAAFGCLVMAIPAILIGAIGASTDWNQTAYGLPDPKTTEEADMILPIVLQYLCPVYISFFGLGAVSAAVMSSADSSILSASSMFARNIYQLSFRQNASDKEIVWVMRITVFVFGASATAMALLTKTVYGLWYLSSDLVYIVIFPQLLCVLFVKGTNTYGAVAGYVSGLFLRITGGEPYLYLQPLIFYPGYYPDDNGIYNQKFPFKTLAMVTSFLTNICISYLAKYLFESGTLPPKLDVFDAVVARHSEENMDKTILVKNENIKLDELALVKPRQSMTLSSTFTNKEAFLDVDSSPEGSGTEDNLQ
Nature of the assay: human choline transporter potentiators, potency – cell-based, 10-point CRC, membrane potential dye, dose response (AID 602376). The assay is classed as functional.

Assay [2] can be described thus: cells. The assay is classed as functional, cell-based.
For assay [3], the target named is T2, Trace amine-associated receptor 1 (Homo sapiens, UniProt Q96RJ0).
T2 sequence (Q96RJ0 whole entry): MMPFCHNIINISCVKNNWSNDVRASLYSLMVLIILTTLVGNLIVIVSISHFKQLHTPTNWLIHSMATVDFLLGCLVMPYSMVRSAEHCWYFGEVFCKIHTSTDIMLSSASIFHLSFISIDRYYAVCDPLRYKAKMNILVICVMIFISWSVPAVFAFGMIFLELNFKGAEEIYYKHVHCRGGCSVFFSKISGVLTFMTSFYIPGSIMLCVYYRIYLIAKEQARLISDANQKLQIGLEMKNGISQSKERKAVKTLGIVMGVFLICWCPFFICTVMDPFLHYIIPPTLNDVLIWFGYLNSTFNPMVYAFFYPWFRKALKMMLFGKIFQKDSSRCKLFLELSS
Description: Fluorescence-based cell-based high throughput dose response assay to identify agonists of the human trace amine associated receptor 1 (TAAR1). The assay is classed as functional.

Assay [4] addresses T2, Trace amine-associated receptor 1. Description: Counterscreen for agonists of the human trace amine associated receptor 1 (hTAAR1): Fluorescence-based cell-based high throughput dose response assay to identify hTAAR1 agonist that also desensitize TAAR1 receptor response. The class given is functional.
The nature of assay [5]: cells. The class given is functional, cell-based. The source holds these as a separate data set.
The target in assay [6] is Sphingosine 1-phosphate receptor 2 (Homo sapiens, UniProt O95136). Description: Late-stage fluorescence-based dose-response cell-based counterscreen assay to identify agonists of the Sphingosine 1-Phosphate Receptor 3 (S1P3): Sphingosine 1-Phosphate Receptor 2 (S1P2) agonist assay. The class given is functional.
The target in assay [7] is Sphingosine 1-phosphate receptor 4 (Homo sapiens, UniProt O95977). Description: Late-stage fluorescence-based dose-response cell-based counterscreen assay to identify agonists of the Sphingosine 1-Phosphate Receptor 3 (S1P3): Sphingosine 1-Phosphate Receptor 4 (S1P4) agonist assay. The assay is classed as functional.
For assay [8], the target named is Protein kinase C theta type (Homo sapiens, UniProt Q04759). Nature of the assay: Navigating the Kinome. Panel member name: PRKCQ. The assay is classed as functional.
Assay [9] addresses Ribosomal protein S6 kinase alpha-3 (Homo sapiens, UniProt P51812). The class given is functional.
Assay [10] concerns the target Dual specificity protein kinase CLK2 (Homo sapiens, UniProt P49760). The class given is functional.
The target in assay [11] is Dual specificity mitogen-activated protein kinase kinase 1 (Homo sapiens, UniProt Q02750). Nature of the assay: Navigating the Kinome. Panel member name: MAP2K1. The assay is classed as functional.
The target of assay [12] is Tyrosine-protein kinase JAK2 (Homo sapiens, UniProt O60674). The assay is classed as functional.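 Further: JAK2 tested as one member of a kinase panel.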
Assay [13] deals with Serine/threonine-protein kinase TBK1 (Homo sapiens, UniProt Q9UHD2). Description: Navigating the Kinome. Panel member name: TBK1. The class given is functional.
Serine/threonine-protein kinase TBK1, sequence (Q9UHD2 whole entry): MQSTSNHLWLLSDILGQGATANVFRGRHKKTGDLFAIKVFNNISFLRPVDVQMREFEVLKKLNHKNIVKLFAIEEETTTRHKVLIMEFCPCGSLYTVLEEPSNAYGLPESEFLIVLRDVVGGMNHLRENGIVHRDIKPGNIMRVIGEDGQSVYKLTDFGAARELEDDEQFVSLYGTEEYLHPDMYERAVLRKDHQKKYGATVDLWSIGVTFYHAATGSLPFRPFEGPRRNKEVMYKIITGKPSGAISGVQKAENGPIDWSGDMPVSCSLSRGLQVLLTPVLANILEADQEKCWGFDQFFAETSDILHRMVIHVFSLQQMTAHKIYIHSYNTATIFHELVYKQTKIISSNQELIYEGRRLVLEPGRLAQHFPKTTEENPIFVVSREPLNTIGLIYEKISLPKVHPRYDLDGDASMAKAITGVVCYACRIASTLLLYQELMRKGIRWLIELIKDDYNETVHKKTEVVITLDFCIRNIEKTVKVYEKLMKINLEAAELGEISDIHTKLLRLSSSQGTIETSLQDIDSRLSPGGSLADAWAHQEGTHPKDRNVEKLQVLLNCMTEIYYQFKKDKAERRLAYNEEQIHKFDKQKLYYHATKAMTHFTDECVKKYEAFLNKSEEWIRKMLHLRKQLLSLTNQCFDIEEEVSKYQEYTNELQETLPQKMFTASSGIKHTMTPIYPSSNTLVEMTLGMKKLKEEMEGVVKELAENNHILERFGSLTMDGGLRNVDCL
Assay [14] has as its target 5'-AMP-activated protein kinase catalytic subunit alpha-1 (Homo sapiens, UniProt Q13131). The class given is functional.
Assay [15] concerns the target ALK tyrosine kinase receptor (Homo sapiens, UniProt Q9UM73). The class given is functional.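 Further: ALK tested as one member of a kinase panel screen.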
Assay [16] addresses Tyrosine-protein kinase receptor TYRO3 (Homo sapiens, UniProt Q06418). The class given is functional.
Assay [17] addresses Serine/threonine-protein kinase D3 (Homo sapiens, UniProt O94806). The class given is functional.
For assay [18], the target named is Death-associated protein kinase 3 (Homo sapiens, UniProt O43293). The assay is classed as functional.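 Further: measured as one member of a kinome-wide profiling panel.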
Death-associated protein kinase 3, sequence (O43293 whole entry): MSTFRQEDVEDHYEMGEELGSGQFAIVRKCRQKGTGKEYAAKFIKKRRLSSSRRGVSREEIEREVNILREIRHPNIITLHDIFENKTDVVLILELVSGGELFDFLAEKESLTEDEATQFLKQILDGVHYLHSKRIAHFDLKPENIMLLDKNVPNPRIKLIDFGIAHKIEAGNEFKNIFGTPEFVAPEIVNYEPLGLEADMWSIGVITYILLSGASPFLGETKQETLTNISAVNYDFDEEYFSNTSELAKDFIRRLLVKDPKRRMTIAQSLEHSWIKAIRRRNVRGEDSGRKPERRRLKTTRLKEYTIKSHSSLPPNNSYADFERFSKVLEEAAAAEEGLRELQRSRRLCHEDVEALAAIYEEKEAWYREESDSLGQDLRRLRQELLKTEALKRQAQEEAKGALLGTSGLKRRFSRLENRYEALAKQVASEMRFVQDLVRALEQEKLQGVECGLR
For assay [19], the target named is Activin receptor type-1 (Homo sapiens, UniProt Q04771). Nature of the assay: Navigating the Kinome. Panel member name: ACVR1. The assay is classed as functional.
Assay [20] concerns the target Mitogen-activated protein kinase 8 (Homo sapiens, UniProt P45983). The class given is functional.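 Further: value comes from one member of a kinome-wide kinase profiling panel.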
For assay [21], the target named is Aurora kinase A (Homo sapiens, UniProt O14965). The class given is functional.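 Further: value from the Navigating the Kinome kinase panel profiling, panel entry STK6.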
Assay [22] concerns the target Tyrosine-protein kinase BTK (Homo sapiens, UniProt Q06187). The assay is classed as functional.
The target in assay [23] is Serine/threonine-protein kinase PAK 4 (Homo sapiens, UniProt O96013). The class given is functional.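 Further: value obtained within a kinome profiling panel in which PAK4 was one of the panel members.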
The target of assay [24] is Fibroblast growth factor receptor 1 (Homo sapiens, UniProt P11362). The class given is functional.
Assay [25] addresses Casein kinase I isoform alpha (Homo sapiens, UniProt P48729). The assay is classed as functional.
Assay [26] addresses Tyrosine-protein kinase JAK3 (Homo sapiens, UniProt P52333). The class given is functional.
The target of assay [27] is Mitogen-activated protein kinase 9 (Homo sapiens, UniProt P45984). The assay is classed as functional.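 Further: value from a kinome panel profiling assay, MAPK9 panel entry.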
Assay [28] has as its target Glycogen synthase kinase-3 alpha (Homo sapiens, UniProt P49840). The assay is classed as functional.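 Further: GSK3A result taken from a broad kinome-wide kinase panel.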
For assay [29], the target named is Mitogen-activated protein kinase kinase kinase kinase 2 (Homo sapiens, UniProt Q12851). The assay is classed as functional.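 Further: measured as one member of a kinome-wide kinase panel, with MAP4K2 as the panel entry.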
Mitogen-activated protein kinase kinase kinase kinase 2, sequence (Q12851 whole entry): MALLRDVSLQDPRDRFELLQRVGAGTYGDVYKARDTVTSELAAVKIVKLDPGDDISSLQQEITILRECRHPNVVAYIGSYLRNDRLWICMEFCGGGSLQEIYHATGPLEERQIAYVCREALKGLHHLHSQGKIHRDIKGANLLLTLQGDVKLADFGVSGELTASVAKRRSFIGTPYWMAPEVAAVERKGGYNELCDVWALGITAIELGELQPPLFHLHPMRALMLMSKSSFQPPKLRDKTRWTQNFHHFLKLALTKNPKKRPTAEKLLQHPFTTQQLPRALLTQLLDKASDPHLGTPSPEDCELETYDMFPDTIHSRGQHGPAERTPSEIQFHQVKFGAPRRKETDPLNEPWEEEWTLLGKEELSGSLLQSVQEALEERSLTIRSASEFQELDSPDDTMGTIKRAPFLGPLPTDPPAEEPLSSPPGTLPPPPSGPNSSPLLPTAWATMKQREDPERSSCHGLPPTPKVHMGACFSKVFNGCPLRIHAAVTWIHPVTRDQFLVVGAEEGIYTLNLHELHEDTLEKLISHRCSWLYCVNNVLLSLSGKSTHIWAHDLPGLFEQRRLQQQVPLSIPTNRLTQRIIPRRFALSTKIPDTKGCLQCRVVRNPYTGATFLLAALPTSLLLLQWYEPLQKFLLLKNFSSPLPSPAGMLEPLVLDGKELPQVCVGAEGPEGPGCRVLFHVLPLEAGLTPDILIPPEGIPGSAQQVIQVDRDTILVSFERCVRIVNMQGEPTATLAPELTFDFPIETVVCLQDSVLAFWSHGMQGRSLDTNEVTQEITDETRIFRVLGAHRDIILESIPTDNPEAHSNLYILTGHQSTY
For assay [30], the target named is Activated CDC42 kinase 1 (Homo sapiens, UniProt Q07912). Nature of the assay: Navigating the Kinome. Panel member name: ACK1. The class given is functional.
The target in assay [31] is Platelet-derived growth factor receptor beta (Homo sapiens, UniProt P09619). The class given is functional.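 Further: value comes from a kinome panel, with PDGFRB tested as one panel member.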
Assay [32] addresses Tyrosine-protein kinase ABL1 (Homo sapiens, UniProt P00519). The class given is functional.
The target in assay [33] is Vascular endothelial growth factor receptor 2 (Homo sapiens, UniProt P35968). The class given is functional.
In assay [34] the target is Cyclin-dependent kinase 5 (Homo sapiens, UniProt Q00535). The class given is functional.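 Further: CDK5 measured as one member of a kinase profiling panel.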
For assay [35], the target named is Dual specificity tyrosine-phosphorylation-regulated kinase 1B (Homo sapiens, UniProt Q9Y463). Description: Navigating the Kinome. Panel member name: DYRK1B. The assay is classed as functional.
The target of assay [36] is Focal adhesion kinase 1 (Homo sapiens, UniProt Q05397). The class given is functional.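 Further: measured as one member of a kinome panel.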
Focal adhesion kinase 1, sequence (Q05397 whole entry): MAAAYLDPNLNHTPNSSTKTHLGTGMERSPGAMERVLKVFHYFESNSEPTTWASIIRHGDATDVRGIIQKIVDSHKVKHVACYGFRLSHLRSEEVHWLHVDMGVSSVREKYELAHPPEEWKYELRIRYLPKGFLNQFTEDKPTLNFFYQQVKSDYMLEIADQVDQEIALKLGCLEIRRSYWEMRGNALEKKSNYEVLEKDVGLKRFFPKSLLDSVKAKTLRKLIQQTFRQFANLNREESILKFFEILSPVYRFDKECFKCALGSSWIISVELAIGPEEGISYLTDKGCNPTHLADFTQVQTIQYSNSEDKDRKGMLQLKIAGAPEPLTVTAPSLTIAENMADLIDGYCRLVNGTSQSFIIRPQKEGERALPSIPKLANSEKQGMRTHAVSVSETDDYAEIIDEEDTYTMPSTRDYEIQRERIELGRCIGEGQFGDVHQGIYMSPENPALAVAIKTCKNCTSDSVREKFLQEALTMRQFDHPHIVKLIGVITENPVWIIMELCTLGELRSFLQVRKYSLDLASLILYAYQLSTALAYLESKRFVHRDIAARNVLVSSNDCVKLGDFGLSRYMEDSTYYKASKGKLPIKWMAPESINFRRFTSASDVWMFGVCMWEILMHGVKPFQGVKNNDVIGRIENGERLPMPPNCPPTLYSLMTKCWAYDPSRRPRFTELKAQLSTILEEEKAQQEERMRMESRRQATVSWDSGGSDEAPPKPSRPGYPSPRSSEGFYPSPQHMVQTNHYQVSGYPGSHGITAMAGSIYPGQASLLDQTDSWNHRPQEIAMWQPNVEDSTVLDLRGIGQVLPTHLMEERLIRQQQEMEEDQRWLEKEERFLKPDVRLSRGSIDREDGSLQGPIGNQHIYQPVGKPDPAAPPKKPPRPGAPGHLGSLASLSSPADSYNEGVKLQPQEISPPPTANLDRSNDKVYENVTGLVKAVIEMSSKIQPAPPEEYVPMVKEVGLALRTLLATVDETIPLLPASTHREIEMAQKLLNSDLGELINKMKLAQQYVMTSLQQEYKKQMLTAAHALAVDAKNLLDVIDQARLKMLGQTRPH
The target in assay [37] is Leucine-rich repeat serine/threonine-protein kinase 2 (Homo sapiens, UniProt Q5S007). The class given is functional.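 Further: value from a broad kinome-wide panel profiling study in which LRRK2 was one of the kinases tested.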
The target of assay [38] is Aurora kinase B (Homo sapiens, UniProt Q96GD4). The class given is functional.
In assay [39] the target is Rho-associated protein kinase 1 (Homo sapiens, UniProt Q13464). The assay is classed as functional.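 Further: measured within a broad kinome-wide panel profiling many kinases.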
The target of assay [40] is Cyclin-dependent kinase 8 (Homo sapiens, UniProt P49336). Nature of the assay: Navigating the Kinome. Panel member name: CDK8. The assay is classed as functional.
Assay [41] concerns the target Cyclin-dependent kinase 7 (Homo sapiens, UniProt P50613). The class given is functional.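 Further: value comes from a kinome-wide kinase profiling panel in which CDK7 is one member.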
Assay [42] deals with Vascular endothelial growth factor receptor 1 (Homo sapiens, UniProt P17948). The assay is classed as functional.
Assay [43] has as its target Glycogen synthase kinase-3 beta (Homo sapiens, UniProt P49841). The class given is functional.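 Further: value comes from a broad kinome profiling panel, with GSK3B as the panel member.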
The target in assay [44] is Cyclin-dependent kinase 9 (Homo sapiens, UniProt P50750). The assay is classed as functional.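 Further: value from the CDK9 entry of a kinome-spanning kinase panel.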
The target of assay [45] is cAMP-dependent protein kinase catalytic subunit alpha (Homo sapiens, UniProt P17612). The class given is functional.
Assay [46] deals with Dual specificity protein kinase CLK4 (Homo sapiens, UniProt Q9HAZ1). The class given is functional.
The target in assay [47] is Mitogen-activated protein kinase kinase kinase kinase 4 (Homo sapiens, UniProt O95819). The class given is functional.
For assay [48], the target named is Macrophage-stimulating protein receptor (Homo sapiens, UniProt Q04912). Nature of the assay: Navigating the Kinome. Panel member name: MST1R. The class given is functional.
The target in assay [49] is Macrophage colony-stimulating factor 1 receptor (Homo sapiens, UniProt P07333). The assay is classed as functional.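 Further: value comes from the Navigating the Kinome screening panel, CSF1R member.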
In assay [50] the target is Dual specificity mitogen-activated protein kinase kinase 2 (Homo sapiens, UniProt P36507). Nature of the assay: Navigating the Kinome. Panel member name: MAP2K2. The assay is classed as functional.
The target of assay [51] is Dual specificity tyrosine-phosphorylation-regulated kinase 1A (Homo sapiens, UniProt Q13627). The assay is classed as functional.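 Further: measured against DYRK1A as one member of a broad kinome profiling panel.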
For assay [52], the target named is Inhibitor of nuclear factor kappa-B kinase subunit epsilon (Homo sapiens, UniProt Q14164). Description: Navigating the Kinome. Panel member name: IKBKE. The assay is classed as functional.
Assay [53] has as its target Leukocyte tyrosine kinase receptor (Homo sapiens, UniProt P29376). Description: Navigating the Kinome. Panel member name: LTK. The class given is functional.

Tyrosine-protein kinase receptor TYRO3, sequence (Q06418 whole entry): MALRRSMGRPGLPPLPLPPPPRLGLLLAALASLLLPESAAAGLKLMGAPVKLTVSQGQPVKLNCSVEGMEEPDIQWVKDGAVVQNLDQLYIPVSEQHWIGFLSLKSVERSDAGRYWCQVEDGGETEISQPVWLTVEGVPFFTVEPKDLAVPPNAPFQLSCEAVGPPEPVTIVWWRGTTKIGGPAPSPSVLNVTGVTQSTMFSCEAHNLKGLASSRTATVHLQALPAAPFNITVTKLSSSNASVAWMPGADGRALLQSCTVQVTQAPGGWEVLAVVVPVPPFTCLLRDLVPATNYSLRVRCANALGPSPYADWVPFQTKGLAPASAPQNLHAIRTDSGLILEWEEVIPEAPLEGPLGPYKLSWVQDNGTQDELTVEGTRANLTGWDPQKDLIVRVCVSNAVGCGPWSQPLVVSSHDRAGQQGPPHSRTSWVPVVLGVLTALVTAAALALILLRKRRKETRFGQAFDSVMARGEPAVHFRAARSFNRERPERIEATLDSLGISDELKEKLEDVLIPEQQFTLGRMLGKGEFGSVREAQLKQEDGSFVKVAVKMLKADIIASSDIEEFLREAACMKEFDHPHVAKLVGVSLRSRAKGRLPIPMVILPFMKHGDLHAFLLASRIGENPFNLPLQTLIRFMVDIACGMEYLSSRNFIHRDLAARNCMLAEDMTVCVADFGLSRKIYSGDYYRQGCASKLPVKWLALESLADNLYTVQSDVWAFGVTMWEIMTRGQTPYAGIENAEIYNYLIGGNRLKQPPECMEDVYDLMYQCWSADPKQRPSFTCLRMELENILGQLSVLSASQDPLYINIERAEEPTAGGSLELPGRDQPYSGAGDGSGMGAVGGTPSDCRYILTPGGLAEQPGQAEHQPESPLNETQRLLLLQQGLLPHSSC
Tyrosine-protein kinase JAK3, sequence (P52333 whole entry): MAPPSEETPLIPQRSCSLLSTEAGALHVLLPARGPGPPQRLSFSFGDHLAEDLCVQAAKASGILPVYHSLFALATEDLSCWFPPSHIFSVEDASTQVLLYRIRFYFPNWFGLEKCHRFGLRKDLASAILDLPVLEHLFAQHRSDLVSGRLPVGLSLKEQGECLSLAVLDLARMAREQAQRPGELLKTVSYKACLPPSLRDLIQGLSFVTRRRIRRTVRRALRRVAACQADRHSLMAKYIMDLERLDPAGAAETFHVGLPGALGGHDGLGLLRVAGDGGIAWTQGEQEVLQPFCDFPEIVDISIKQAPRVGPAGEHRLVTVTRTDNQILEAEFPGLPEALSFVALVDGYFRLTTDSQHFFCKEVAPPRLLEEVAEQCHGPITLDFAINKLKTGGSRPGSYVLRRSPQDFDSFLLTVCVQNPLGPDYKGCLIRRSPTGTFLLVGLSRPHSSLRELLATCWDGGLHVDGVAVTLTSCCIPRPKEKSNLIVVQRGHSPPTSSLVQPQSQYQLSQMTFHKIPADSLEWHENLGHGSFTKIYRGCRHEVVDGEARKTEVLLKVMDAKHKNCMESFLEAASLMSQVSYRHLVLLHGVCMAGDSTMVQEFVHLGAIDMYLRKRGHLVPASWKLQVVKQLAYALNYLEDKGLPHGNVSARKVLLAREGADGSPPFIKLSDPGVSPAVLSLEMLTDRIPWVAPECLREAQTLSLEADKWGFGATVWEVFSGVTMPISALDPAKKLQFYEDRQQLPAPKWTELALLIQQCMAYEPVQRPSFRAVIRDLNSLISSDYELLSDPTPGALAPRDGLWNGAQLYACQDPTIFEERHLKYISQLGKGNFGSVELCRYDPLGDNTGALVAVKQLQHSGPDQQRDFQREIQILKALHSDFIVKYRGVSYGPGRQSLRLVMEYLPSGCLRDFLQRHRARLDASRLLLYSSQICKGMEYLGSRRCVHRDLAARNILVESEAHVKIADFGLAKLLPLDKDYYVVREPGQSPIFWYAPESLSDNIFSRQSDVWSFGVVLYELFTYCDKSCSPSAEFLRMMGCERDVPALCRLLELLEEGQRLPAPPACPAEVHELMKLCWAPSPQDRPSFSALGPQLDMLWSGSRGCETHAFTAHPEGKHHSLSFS

As for `CC(C)CC(C(=O)N1CCc2ccccc2C1)N1C(=O)c2ccccc2C1=O` (stereo not drawn), the figures for the EC50 in assay [1], in [3] and in assay [5] were 22.4 µM (active), 2.96 µM (active) and > 29.9 µM (inactive), respectively. The IC50 in [2] is > 29.9 µM (inactive); in assay [4], 5.55 µM (active).
In the case of `CCCc1cc(C(=O)N(C2CCCCC2)C2CCCC2)no1`, the EC50 in [6] and in assay [7] was > 50 µM (inactive) each time.
For `Fc1cccc(CNc2ncnc3nc[nH]c23)c1`, the inhibition constant (Ki) in assay [8] is 50.1 µM (active); in assay [9], 39.8 µM (active); in assay [10], 25.1 µM (active); in assay [11] it was 10 µM (active); in [12], 31.6 µM (active); in assay [13], 63.1 µM (active). Besides, the Ki is 15.8 µM (active) in [14]; 63.1 µM (active) in [15]; 63.1 µM (active) in assay [16]; 63.1 µM (active) in assay [17]; 31.6 µM (active) in assay [18]; 39.8 µM (active) in assay [19]. The Ki was 15.8 µM (active) in [20]; 39.8 µM (active) in assay [21]; 63.1 µM (active) in assay [22]; 20 µM (active) in [23]; 25.1 µM (active) in assay [24]; 10 µM (active) in assay [25]. Besides, the inhibition constant (Ki) in [26] was 63.1 µM (active); in [27], 50.1 µM (active); in assay [28] it was 50.1 µM (active); in [29], 79.4 µM (active); in assay [30], 25.1 µM (active); in [31] it was 12.6 µM (active). For the same compound, the Ki in assay [32] was 50.1 µM (active); in assay [33], 25.1 µM (active); in assay [34] it was 5.01 µM (active); in assay [35], 12.6 µM (active); in assay [36], 79.4 µM (active); in assay [37] it was 2 µM (active). Also, the Ki in [38] was 15.8 µM (active); in assay [39], 5.01 µM (active); in assay [40], 12.6 µM (active); in assay [41], 31.6 µM (active); in assay [42], 79.4 µM (active); in [43], 50.1 µM (active). The Ki in assay [44] was > 63.1 µM (inactive); in assay [45], 10 µM (active); in [46], 1.58 µM (active); in assay [47], 79.4 µM (active); in [48], 31.6 µM (active); in assay [49], 31.6 µM (active). Moreover, the Ki is 39.8 µM (active) in assay [50], 39.8 µM (active) in [51], 100 µM (active) in assay [52] and 15.8 µM (active) in [53].
